Experimental findings from PMC5471521, “Novel selective β1-adrenoceptor antagonists for concomitant cardiovascular and respiratory disease” (The FASEB Journal, 2017) are described below.

Data set [1] addresses 5-HT2B (Homo sapiens, UniProt P41595). Description: Cerep receptor radioligand-binding assay. The settings on record: concentration-response, Cheng-Prusoff. On the procedure: […]; Ki (inhibition constant) was calculated by using the Cheng-Prusoff equation from the mean of duplicate determinations in cell-based receptor radioligand-binding assays. Cerep in vitro pharmacology profiling service was used (see the Supplemental Data for a list of the assays used).

Data set [2] in a line: Seven-day oral dose range rat toxicity study. The data set is classed as in vivo. On the procedure: Male Crl:CD rats (9 wk old, weighing 316.8–349.4 g on d 1; Charles River) were administered 1 oral dose of NDD-825.HCl in water that contained 0.5% (w/v) hydroxypropylmethylcellulose K15M, 0.5% (v/v) benzyl alcohol, and 0.4% (v/v) Tween-80 at 20, 90, or 300 mg/kg at a dose volume of 10 ml/kg for 7 consecutive days (4 animals per group). Blood samples were collected before and at time points during the 24 h that followed for bioanalysis. Animals were monitored for adverse clinical signs and body weight. Terminal blood samples were taken for clinical chemistry, and organs were harvested for microscopic examination (see Supplemental Data for full details). Three additional male rats per group received NDD-825.HCl on d 1 only to collect blood samples for plasma bioanalysis of compound toxicokinetics. NDD-825 was quantifiable in plasma of all animals up to 8 h after dose administration; […]. Systemic exposure to NDD-825 in terms of Cmax increased in approximate proportion with increasing dose, whereas for the same dose increase, AUC0-t increased in a supraproportional manner across the entire dose range. […]. […] Study was carried out by Aptuit (Verona, Italy).

The Ki is the equilibrium dissociation constant of an inhibitor or competing ligand from its target. By Tmax is commonly meant the time from dosing to the highest level.

Where only a bound is given, the exact number is not on record here.

Chain of 5-HT2B (P41595 whole entry): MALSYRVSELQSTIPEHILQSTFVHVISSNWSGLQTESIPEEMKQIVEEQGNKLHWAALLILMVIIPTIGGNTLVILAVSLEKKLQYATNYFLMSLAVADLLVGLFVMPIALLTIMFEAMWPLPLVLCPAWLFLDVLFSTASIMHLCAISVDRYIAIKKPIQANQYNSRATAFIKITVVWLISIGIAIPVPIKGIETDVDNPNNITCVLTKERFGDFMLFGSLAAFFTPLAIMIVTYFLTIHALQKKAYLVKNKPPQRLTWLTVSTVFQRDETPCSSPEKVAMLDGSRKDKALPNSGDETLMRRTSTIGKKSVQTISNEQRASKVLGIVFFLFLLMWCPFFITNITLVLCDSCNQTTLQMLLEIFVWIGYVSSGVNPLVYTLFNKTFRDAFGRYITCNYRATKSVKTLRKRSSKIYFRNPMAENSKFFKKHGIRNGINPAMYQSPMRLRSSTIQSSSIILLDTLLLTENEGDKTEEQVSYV

In data set [1], `NC(=O)c1ccc(OCCNC[C@H](O)COc2ccc3c(c2)OC[C@@H](COCC2CC2)O3)cc1` [NDD-713] yielded a Ki of more than 10 µM.
With `O=C1NCc2cc(OCCNC[C@H](O)COc3ccc4c(c3)OC[C@@H](COCC3CC3)O4)ccc21` [NDD-825], the Tolerability entry in data set [2] (300 mg/kg once daily p.o. for 7 d (highest dose tested)) is “well tolerated”. In addition, the Change in triglycerides result in data set [2] (7-d repeat oral dosing, top dose) is “dose-related increase in triglycerides”. The MTD at 7 d in data set [2] (male, Crl:CD, in vivo, 7-d repeat oral dosing, read-out: Maximum tolerated dose) was more than 300 mg/kg/day. The Tmax in data set [2] (male, Crl:CD, plasma, oral 20, 90 or 300 mg/kg, read-out: tmax (toxicokinetics)) was 2 to 8 h. Further, in data set [2] (oral, 20 to 300 mg/kg/d), the “Increase of AUC0-t for a 15-fold increase in dose” value turned out to be 31.4 fold and the “Increase of Cmax for a 15-fold increase in dose” value was determined as 12.4 fold.
